# Laboratory results published in PubChem BioAssay (NCI).
#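 GI50 = concentration required for 50% inhibition of growth. Definition used: TGI = concentration required for complete inhibition of growth.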
# Assays:
# Assay in all cases: DTP human tumour cell line panel, 384-well format
# CAKI-1 renal = test system: CAKI-1 renal
# SNB-19 CNS = test system: SNB-19 CNS
# BT-549 breast = test system: BT-549 breast
# SK-MEL-5 melanoma = test system: SK-MEL-5 melanoma
# OVCAR-4 ovarian = test system: OVCAR-4 ovarian
# LOX IMVI melanoma = test system: LOX IMVI melanoma
# NCI-H460 NSCLC = test system: NCI-H460 NSCLC
# NCI-H522 lung = test system: NCI-H522 lung
# T-47D breast = test system: T-47D breast
# A549 NSCLC = test system: A549 NSCLC
# HL-60(TB) leukemia = test system: HL-60(TB) leukemia
# COLO 205 colon = test system: COLO 205 colon
# MDA-MB-468 breast = test system: MDA-MB-468 breast
# DU-145 prostate = test system: DU-145 prostate
# ACHN renal = test system: ACHN renal
# UACC-62 melanoma = test system: UACC-62 melanoma
# OVCAR-8 ovarian = test system: OVCAR-8 ovarian
# HCC-2998 colon = test system: HCC-2998 colon
# SW-620 colon = test system: SW-620 colon
# U251 glioblastoma = test system: U251 glioblastoma
# SR leukemia = test system: SR leukemia
# SN12C renal = test system: SN12C renal
# MALME-3M melanoma = test system: MALME-3M melanoma
# SF-295 CNS = test system: SF-295 CNS
# M14 melanoma = test system: M14 melanoma
# HT29 colon = test system: HT29 colon
# KM12 colon = test system: KM12 colon
# NCI-H226 lung = test system: NCI-H226 lung
# UACC-257 melanoma = test system: UACC-257 melanoma
# RXF 393 renal = test system: RXF 393 renal
# 786-0 renal = test system: 786-0 renal
# MCF7 breast = test system: MCF7 breast
# IGROV1 ovarian = test system: IGROV1 ovarian
# UO-31 renal = test system: UO-31 renal
# SF-268 CNS = test system: SF-268 CNS
# SK-MEL-28 melanoma = test system: SK-MEL-28 melanoma
# K-562 leukemia = test system: K-562 leukemia
# RPMI-8226 leukemia = test system: RPMI-8226 leukemia
# HOP-92 NSCLC = test system: HOP-92 NSCLC
# MOLT-4 leukemia = test system: MOLT-4 leukemia
# EKVX NSCLC = test system: EKVX NSCLC
# OVCAR-3 ovarian = test system: OVCAR-3 ovarian
# NCI-H322M lung = test system: NCI-H322M lung
# CCRF-CEM leukemia = test system: CCRF-CEM leukemia
# SF-539 CNS = test system: SF-539 CNS
# A498 renal = test system: A498 renal
# HS 578T breast = test system: HS 578T breast
# MDA-MB-231 breast = test system: MDA-MB-231 breast
# SNB-75 CNS = test system: SNB-75 CNS
# NCI/ADR-RES ovarian = test system: NCI/ADR-RES ovarian
# MDA-MB-435 melanoma = test system: MDA-MB-435 melanoma
# HOP-62 NSCLC = test system: HOP-62 NSCLC
# SK-OV-3 ovarian = test system: SK-OV-3 ovarian
# NCI-H23 lung = test system: NCI-H23 lung
# HCT-116 colon = test system: HCT-116 colon
# PC-3 prostate = test system: PC-3 prostate
# TK-10 renal = test system: TK-10 renal
# HCT-15 colon = test system: HCT-15 colon
compound,measurement,setting,value
O=C(O)CSc1cc(NS(=O)(=O)c2ccc(Br)cc2)c2ccccc2c1O,GI50,CAKI-1 renal,10.9 µM
same,TGI,CAKI-1 renal,22.8 µM
same,GI50,SNB-19 CNS,5.03 µM
same,TGI,SNB-19 CNS,15.4 µM
same,GI50,BT-549 breast,2.93 µM
same,TGI,BT-549 breast,7.45 µM
same,GI50,SK-MEL-5 melanoma,1.98 µM
same,TGI,SK-MEL-5 melanoma,3.52 µM
same,GI50,OVCAR-4 ovarian,1.73 µM
same,TGI,OVCAR-4 ovarian,3.12 µM
same,GI50,LOX IMVI melanoma,1.79 µM
same,TGI,LOX IMVI melanoma,3.26 µM
same,GI50,NCI-H460 NSCLC,13.5 µM
same,TGI,NCI-H460 NSCLC,26.3 µM
same,GI50,NCI-H522 lung,7.47 µM
same,TGI,NCI-H522 lung,20 µM
same,GI50,T-47D breast,2.61 µM
same,TGI,T-47D breast,5.11 µM
same,GI50,A549 NSCLC,11.6 µM
same,TGI,A549 NSCLC,23.8 µM
same,GI50,HL-60(TB) leukemia,1.82 µM
same,TGI,HL-60(TB) leukemia,3.22 µM
same,GI50,COLO 205 colon,3.12 µM
same,TGI,COLO 205 colon,9.58 µM
same,GI50,MDA-MB-468 breast,1.39 µM
same,TGI,MDA-MB-468 breast,2.7 µM
same,GI50,DU-145 prostate,2.37 µM
same,TGI,DU-145 prostate,5.24 µM
same,GI50,ACHN renal,4.15 µM
same,TGI,ACHN renal,13.6 µM
same,GI50,UACC-62 melanoma,1.91 µM
same,TGI,UACC-62 melanoma,3.33 µM
same,GI50,OVCAR-8 ovarian,1.92 µM
same,TGI,OVCAR-8 ovarian,3.97 µM
same,GI50,HCC-2998 colon,11.7 µM
same,TGI,HCC-2998 colon,23.9 µM
same,GI50,SW-620 colon,2.42 µM
same,TGI,SW-620 colon,6.09 µM
same,GI50,U251 glioblastoma,2.55 µM
same,TGI,U251 glioblastoma,6.16 µM
same,GI50,SR leukemia,2.6 µM
same,TGI,SR leukemia,4.08 µM
same,GI50,SN12C renal,2.03 µM
same,TGI,SN12C renal,3.64 µM
same,GI50,MALME-3M melanoma,1.95 µM
same,TGI,MALME-3M melanoma,3.38 µM
same,GI50,SF-295 CNS,6.61 µM
same,TGI,SF-295 CNS,19 µM
same,GI50,M14 melanoma,3.11 µM
same,TGI,M14 melanoma,7.41 µM
same,GI50,HT29 colon,3.94 µM
same,TGI,HT29 colon,11.9 µM
same,GI50,KM12 colon,4.91 µM
same,TGI,KM12 colon,16.2 µM
same,GI50,NCI-H226 lung,6.7 µM
same,TGI,NCI-H226 lung,18.5 µM
same,GI50,UACC-257 melanoma,1.65 µM
same,TGI,UACC-257 melanoma,3.03 µM
same,GI50,RXF 393 renal,1.75 µM
same,TGI,RXF 393 renal,3.44 µM
same,GI50,786-0 renal,6.17 µM
same,TGI,786-0 renal,18.3 µM
same,GI50,MCF7 breast,1.62 µM
same,TGI,MCF7 breast,3.15 µM
same,GI50,IGROV1 ovarian,2.69 µM
same,TGI,IGROV1 ovarian,6.51 µM
same,GI50,UO-31 renal,2.05 µM
same,TGI,UO-31 renal,3.91 µM
same,GI50,SF-268 CNS,2.4 µM
same,TGI,SF-268 CNS,6.02 µM
same,GI50,SK-MEL-28 melanoma,2.25 µM
same,TGI,SK-MEL-28 melanoma,4.05 µM
same,GI50,K-562 leukemia,1.39 µM
same,TGI,K-562 leukemia,2.71 µM
same,GI50,RPMI-8226 leukemia,1.63 µM
same,TGI,RPMI-8226 leukemia,3.37 µM
same,GI50,HOP-92 NSCLC,2.24 µM
same,TGI,HOP-92 NSCLC,4.57 µM
same,GI50,MOLT-4 leukemia,1.96 µM
same,TGI,MOLT-4 leukemia,3.39 µM
same,GI50,EKVX NSCLC,1.92 µM
same,TGI,EKVX NSCLC,3.63 µM
same,GI50,OVCAR-3 ovarian,0.404 µM
same,TGI,OVCAR-3 ovarian,1.69 µM
same,GI50,NCI-H322M lung,16.2 µM
same,TGI,NCI-H322M lung,29.7 µM
same,GI50,CCRF-CEM leukemia,2.02 µM
same,TGI,CCRF-CEM leukemia,3.45 µM
same,GI50,SF-539 CNS,2.2 µM
same,TGI,SF-539 CNS,3.72 µM
same,GI50,A498 renal,16.9 µM
same,TGI,A498 renal,30.6 µM
same,GI50,HS 578T breast,1.63 µM
same,TGI,HS 578T breast,3.04 µM
same,GI50,MDA-MB-231 breast,1.89 µM
same,TGI,MDA-MB-231 breast,3.72 µM
same,GI50,SNB-75 CNS,2.19 µM
same,TGI,SNB-75 CNS,4.5 µM
same,GI50,NCI/ADR-RES ovarian,2.22 µM
same,TGI,NCI/ADR-RES ovarian,4.79 µM
same,GI50,MDA-MB-435 melanoma,2 µM
same,TGI,MDA-MB-435 melanoma,3.43 µM
same,GI50,HOP-62 NSCLC,3.02 µM
same,TGI,HOP-62 NSCLC,8.45 µM
same,GI50,SK-OV-3 ovarian,5.22 µM
same,TGI,SK-OV-3 ovarian,16.6 µM
same,GI50,NCI-H23 lung,1.82 µM
same,TGI,NCI-H23 lung,3.94 µM
same,GI50,HCT-116 colon,2.19 µM
same,TGI,HCT-116 colon,4.15 µM
same,GI50,PC-3 prostate,2.38 µM
same,TGI,PC-3 prostate,5.77 µM
same,GI50,TK-10 renal,14.2 µM
same,TGI,TK-10 renal,27.2 µM
same,GI50,HCT-15 colon,10.6 µM
same,TGI,HCT-15 colon,22.4 µM
